What is called melting point is the temperature of the solid-liquid transition. One may read the Emax as the size of the effect at its maximum, as opposed to the concentration needed. For orientation: IC50 means the midpoint of a concentration-inhibition curve.

Structures are written as SMILES. Where two headings read alike, the source gives them in different places.

The target in data set [1] is T1, LPA2 (Homo sapiens, UniProt Q9HBW0).
T1 construct: expressed in transfected cells
In words: Ca2+ mobilization assay, agonist activity at LPA2. Format: cell-based. Conditions: 10 μM compound. On the procedure:
The agonist activity at LPA2 receptors was determined at 10 μM concentration for all final compounds as previously described.[18]
Figure S1. Representative snapshots showing the lack of significant agonist activity of selected compounds. (A) 1; (B) 13; (C) 54; and (D) Ki16425. (E) Graphs show the agonist activity induced […]
stably expressing LPA2 receptor were plated on collagen-coated black-wall clear-bottom 96-well plates (Corning) at a density of 50000 cells/well and cultured overnight. The culture medium was then replaced with Fluo-4 NW dye loading solution containing 2.5 µM of probenecid and incubated […]
for 30 minutes at 37 °C followed by an additional 30 minutes at rt. Fluorescence changes were registered in a FluoStar Optima instrument (BMG Labtech) at 525 nm using an excitation wavelength of 494 nm. Each well was monitored for 240 s. 20 µL of the test compound from a 6x stock solution in assay buffer were added after 120 s of starting the measurement. Ca2+ transient increase was quantified by calculating the difference between maximum and baseline values for each […]
Graphs shown are representative of two to three independent experiments.
A general note: A change in cytosolic calcium serves as a functional read-out for many receptors and channels.

A short description of data set [2]: Parallel artificial membrane permeability assay (PAMPA). It counts as in vitro ADME. As to conditions: PBS pH 7.4, 5 h, rt. On the procedure:
These studies were carried out as previously described with minor modifications.[41],[42] The assessment of the membrane permeability of synthesized compounds and propranolol and metoprolol as reference compounds was performed in a commercially available 96-well Corning Gentest precoated PAMPA plate system (Cultek S.L.U., Spain). Prior to use, the precoated PAMPA plate system was warmed to rt for 30 min and 300 μL of 200 μM solution of tested compound in 2% DMSO in PBS (pH 7.4) were added into wells in the receiver (donor) plate. Then, 200 μL of PBS were added into wells in the filter (acceptor) plate. The filter plate was placed on the receiver plate by slowly lowering the precoated PAMPA plate until it sits on the receiver plate. The assembly was incubated at rt for 5 h, and then buffer samples were collected carefully from each plate. The final concentrations of compound in both donor and acceptor wells were analyzed by HPLC-MS and quantification was estimated by using the peak area integration normalized with an internal standard. Permeability value of the compounds was calculated using the following formula: P (cm/s) = {−ln[1 – CA(t)/Ceq]}/[A(1/VD + 1/VA)t], where A = filter area (0.3 cm^2), VD = donor well volume (0.3 mL), VA = acceptor well volume (0.2 mL), t = incubation time (s), CA(t) = compound concentration (μM) in the acceptor well at time t, CD(t) = compound concentration (μM) in donor well at time t, and Ceq = [CD(t)VD + CA(t)VA]/(VD + VA). Assays were performed in duplicate, and the compound was tested in two different plates on different days.
A general note: In PAMPA a lipid-coated filter parts donor from acceptor wells.

Data set [3] deals with T1, LPA2. In words: Ca2+ mobilization assay, antagonist activity at LPA2. Format: cell-based. Conditions: for IC50: antagonism of 10 μM LPA, mean ± s.e.m. On the procedure:
(§1) Cells stably expressing the corresponding LPA1–3 receptor were grown as described previously.[18] Changes in intracellular calcium levels were measured by using the fluorescent calcium sensitive dye Fluo-4 NW (Invitrogen). RH7777 cells or B103 cells were plated on poly-D-lysine or collagen coated, respectively, black-wall clear-bottom 96-well plates (Corning) at a density of 50 000 cells/well and cultured overnight. The culture medium was then replaced with 100 μL of Fluo-4 NW dye loading solution containing 2.5 μM of probenecid and incubated for 30 min at 37 °C followed by an additional 30 min at rt. […] Fluorescence changes were registered in a FluoStar Optima instrument (BMG Labtech) at 525 nm using an excitation wavelength of 494 nm. […] The data presented are from two to four independent experiments carried out in triplicate or quadruplicate. Dose–response curves were generated and IC50 values calculated by nonlinear regression analysis using Prism software version 5 (GraphPad Software Inc., San Diego, CA, USA).
Figure S2. Dose response curves for compounds 13, 44, 53, 54, and 55. B103 cells stably expressing LPA2 receptor were incubated with different concentrations of the compound under study and […]
Curves were generated with PRISM software version 5 (GraphPad Software Inc, San Diego, CA, USA) using nonlinear regression analysis. Each data point corresponds to the mean±SEM of two to four independent experiments carried out in triplicate or quadruplicate.

Data set [4] addresses T2, LPA3 (Homo sapiens, UniProt Q9UBY5).
T2 sequence (Q9UBY5 1-353): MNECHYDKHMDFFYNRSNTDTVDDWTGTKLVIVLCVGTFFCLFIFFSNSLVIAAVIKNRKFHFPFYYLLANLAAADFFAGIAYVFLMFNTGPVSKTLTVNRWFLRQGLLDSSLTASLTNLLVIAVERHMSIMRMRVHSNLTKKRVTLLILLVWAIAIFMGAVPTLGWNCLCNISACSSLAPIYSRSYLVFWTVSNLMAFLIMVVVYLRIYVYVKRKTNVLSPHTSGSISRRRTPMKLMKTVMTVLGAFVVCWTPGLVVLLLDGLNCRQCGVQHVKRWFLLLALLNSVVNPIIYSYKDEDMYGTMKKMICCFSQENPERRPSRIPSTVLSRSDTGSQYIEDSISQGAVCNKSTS
In words: cell-based. Here is the method: as §1

Data set [5] can be described thus: Metabolic stability in mouse liver microsomes. It counts as in vitro ADME. As to conditions: male, CD-1, mouse, liver microsomes (pooled), 1 mg/mL protein, NADPH, 37 °C, read-out: stability (t1/2, min) MLMs. Here is the method: (§2) Reactions were initiated by the addition of a suspension of mouse liver microsomes (MLMs) (male CD-1 mice pooled, Sigma-Aldrich) or human liver microsomes (HLMs) (male human pooled, Sigma-Aldrich), respectively, at a final protein concentration of 1 mg/mL. […] Aliquots of 100 μL were quenched at time zero and at seven points ranging to 2 h (MLM) or 4 h (HLM) by pouring into 100 μL of ice-cold acetonitrile. […] The relative disappearance of the compound under study over the course of the incubation was monitored by HPLC-MS using SIM mode. Concentrations were quantified by measuring the area under the peak ([M + H]^+) normalized with an internal standard and converted to the percentage of compound remaining, using the time zero peak area value as 100%. The natural logarithm of the remaining percentage versus time data for each compound was fit to a linear regression, and the slope was used to calculate the degradation half-life (t1/2).
In general terms: Microsomes from liver hold many membrane-bound enzymes, among them those of drug oxidation.

The nature of data set [6]: Metabolic stability in human liver microsomes. It counts as in vitro ADME. As to conditions: male, liver microsomes (pooled), 1 mg/mL protein, NADPH, 37 °C, read-out: stability (t1/2, min) HLMs. On the procedure:
as §2

The target in data set [7] is T3, LPA1 (Homo sapiens, UniProt Q92633). In words: cell-based. Details: Emax: dose or concentration left out as unconfirmed. Here is the method: as §1
Data set [8] addresses T1, LPA2. Conditions: cited from earlier work.
The target in data set [9] is T3, LPA1. Details: expressed in transfected cells. As to conditions: cited from earlier work.
Data set [10] deals with T2, LPA3. Details: expressed in transfected cells. As to conditions: cited from earlier work.
Setting [11] is: maximum blockade of activation induced by 10 μM LPA (18:1) at 10 μM compound, N.E. = no effect at 10 μM.

T3 sequence (Q92633 whole entry, species assumed): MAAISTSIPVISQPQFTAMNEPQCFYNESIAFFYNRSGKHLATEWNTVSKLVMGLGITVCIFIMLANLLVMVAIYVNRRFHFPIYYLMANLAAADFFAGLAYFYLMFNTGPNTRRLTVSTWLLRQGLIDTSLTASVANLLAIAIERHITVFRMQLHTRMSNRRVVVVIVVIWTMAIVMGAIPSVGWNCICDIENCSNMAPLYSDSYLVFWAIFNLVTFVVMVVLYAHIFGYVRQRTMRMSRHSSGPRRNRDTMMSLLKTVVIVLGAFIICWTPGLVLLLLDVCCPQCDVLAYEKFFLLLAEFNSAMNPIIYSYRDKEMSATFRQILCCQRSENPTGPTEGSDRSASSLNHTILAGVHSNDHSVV
T1 sequence (Q9HBW0 whole entry, species assumed): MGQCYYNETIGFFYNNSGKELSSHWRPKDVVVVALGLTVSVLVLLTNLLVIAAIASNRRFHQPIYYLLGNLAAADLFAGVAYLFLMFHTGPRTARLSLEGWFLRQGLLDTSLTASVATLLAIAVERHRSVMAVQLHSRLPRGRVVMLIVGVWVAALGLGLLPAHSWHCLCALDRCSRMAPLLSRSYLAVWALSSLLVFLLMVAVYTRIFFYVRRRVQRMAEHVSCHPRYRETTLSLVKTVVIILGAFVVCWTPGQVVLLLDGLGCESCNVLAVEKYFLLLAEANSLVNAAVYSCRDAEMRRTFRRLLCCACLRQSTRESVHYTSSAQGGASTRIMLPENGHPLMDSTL

As for `Cc1[nH]nc(-c2ccc(OCC(=O)O)cc2O)c1Oc1ccc(Cl)cc1Cl` [Compound 13, {4-[4-(2,4-Dichlorophenoxy)-5-methyl-1H-pyrazol-3-yl]-3-hydroxyphenoxy}acetic Acid], the melting point was > 196 °C (dec.). Besides, the “agonist activity at LPA2 receptor” value in [1] was “lack”. In addition, the “P (cm/s), permeability value” in [2] (200 μM) is recorded as 0.1 × 10^–6 cm/s. Moreover, the Papp at 5 h, 200 μM in data set [2] (pH 7.4, PAMPA, read-out: P (cm/s), permeability value) was 0.11 ×10⁻⁶ cm/s. Besides, in [3], the maximal effect (Emax) at 10 µM stood at 84 ± 3% and the midpoint of inhibition, the IC50, lay at 5.5 µM. In data set [4] (setting [11]), the “Emax (%) LPA3” value is on record as “N.E”. Also, the half-life at 1 μM in data set [5] was around 16 min. Further, in data set [6], the half-life at 5 μM was around 60 min. Moreover, in data set [7] (setting [11]), the “Emax (%) LPA1” value was “N.E. and N.E. ^c”.

Take `Cc1noc(-c2ccc(CSCCC(=O)O)cc2)c1NC(=O)OC(C)c1ccccc1Cl` (centres unmarked) [Ki16425, reference compound]: the IC50 in [8] is 6.5 µM; in data set [9], 340 nM; in [3], 1.2 µM; in data set [4] (read-out: IC50 (μM) LPA3, antagonism of 10 μM LPA, mean ± s.e.m.), 1.6 µM; in [10] it was 930 nM; in [7] (read-out: IC50 (μM) LPA1, antagonism of 10 μM LPA, mean ± s.e.m.) it was 0.8 µM. Further, the “agonist activity at LPA2 receptor” value in data set [1] is “lack”. In [3], the Emax at 10 µM was found to be 92 ± 3%. For the same compound, the values for the Emax in data set [4] (read-out: Emax (%) LPA3) and in data set [7] (read-out: Emax (%) LPA1) were 99 ± 3% and 97 ± 4%, respectively.

These data come from PMC9421655, “Novel Antagonist of the Type 2 Lysophosphatidic Acid Receptor (LPA2), UCM-14216, Ameliorates Spinal Cord Injury in Mice” (Journal of Medicinal Chemistry, 2022).
